Reference: patent publication US20100029710A1, “COMPOUNDS HAVING BOTH ANGIOTENSIN II RECEPTOR ANTAGONISM AND PPARy ACTIVATING ACTIVITIES” (Pfizer Products Inc., priority 2006, published 2010)
pEC50, pIC50: −log10 of the molar value.

Experiments:
[1] = biological target: T1, Human recombinant AT1 receptor (Homo sapiens, UniProt P30556); experiment: AT1 receptor radioligand binding (flashplate); conditions: 125I Sar1,Ile8-Angiotensin II radioligand
T1 construct: purchased
T1 sequence (P30556 1-359): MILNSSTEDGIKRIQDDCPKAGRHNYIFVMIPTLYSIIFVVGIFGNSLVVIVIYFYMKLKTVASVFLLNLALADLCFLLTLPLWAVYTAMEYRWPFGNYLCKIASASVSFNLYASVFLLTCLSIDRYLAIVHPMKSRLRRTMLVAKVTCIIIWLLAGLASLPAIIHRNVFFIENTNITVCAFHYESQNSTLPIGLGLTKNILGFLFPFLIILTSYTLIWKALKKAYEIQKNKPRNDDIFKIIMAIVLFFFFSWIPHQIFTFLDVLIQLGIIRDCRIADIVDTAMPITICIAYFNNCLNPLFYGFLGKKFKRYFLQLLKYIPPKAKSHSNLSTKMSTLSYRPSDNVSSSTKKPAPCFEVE
Method in brief: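 Human recombinant AT1 receptor was coated on flashplates and competed against 125I-Sar1,Ile8-angiotensin II at its Kd concentration for 2 h at room temperature. Compounds were tested from […], with nonspecific binding defined by 10 μM angiotensin II. Ki was derived via Cheng-Prusoff.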

[2] = biological target: T2, human PPARγ LBD bound to Gal4 DBD (Homo sapiens, UniProt P37231); experiment: PPARγ transfection luciferase reporter assay in HepG2 cells; format: cell-based; conditions: for Emax: HepG2, 24 h, compared to full agonist response (standard TZD full agonist), read-out: PPARγ % activation; for pEC50: HepG2, 24 hours exposure
T2 construct: expressed in transfected cells; host or cells: HepG2
T2 sequence (P37231 238-503 limits assumed): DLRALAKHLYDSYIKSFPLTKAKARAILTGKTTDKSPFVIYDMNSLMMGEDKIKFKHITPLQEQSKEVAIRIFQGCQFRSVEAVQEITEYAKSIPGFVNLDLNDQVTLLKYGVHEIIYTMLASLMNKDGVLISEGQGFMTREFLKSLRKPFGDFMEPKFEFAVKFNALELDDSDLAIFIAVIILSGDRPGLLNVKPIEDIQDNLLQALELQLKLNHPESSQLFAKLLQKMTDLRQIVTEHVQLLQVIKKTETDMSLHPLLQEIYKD
Method in brief: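 HepG2 cells transiently co-transfected with Gal4 DBD–PPARγ LBD, luciferase reporter and β-galactosidase, then exposed 24 h to compound (0.1 nM–100 μM). Luciferase/β-gal ratio gives activation. EC50 is relative to each compound's own maximum; efficacy is % of a reference TZD full agonist.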

[3] = tested on: Spontaneously hypertensive rats (SHR); experiment: Blood pressure reduction in vivo assay (radiotelemetry); conditions: SHR rat, single dose 10 mg/kg p.o.
Method: The rats are surgically implanted with radio-telemetry transmitters to allow capture of conscious, unrestrained systolic and diastolic BP as well as heart rate.
In vivo studies were conducted to show the effectiveness of a compound in reducing blood pressure due to its angiotensin II receptor antagonist activity, and its ability to induce insulin sensitization in a diabetic rat due to its PPARγ agonist activity.
Spontaneously hypertensive rats (SHR) were implanted with radiotelemetry devices capable of measuring blood pressure (BP) via an aortic cannula and transmitting the data to a receiving pad under the cage. Animals were conscious and had access to food and water ad libitum while blood pressure was monitored continuously. Rats were dosed with vehicle and monitored for 24 hours to establish baseline before administering compound and measuring changes in blood pressure for another 24 hours. Changes in blood pressure were calculated over time and compared to vehicle controls.

ZDF male rat = experiment: Glucose lowering in vivo assay; conditions: 10 mg/kg p.o. once daily for 28 days; for Difference from Vehicle Control: blood glucose
Text: Homozygous expression of this mutation leads to a phenotype of hyperphagia, obesity, insulin resistance, hyperglycemia, and hypertriglyceridemia resulting in uncontrolled diabetes, β-cell failure, severe nephropathy, and proteinuria by 16 weeks of age.
The hypoglycemic activity of the compounds of this invention can be determined by the amount of test compound that delays or suppresses elevations in glucose levels relative to a vehicle without test compound in male ZDF rats.
Male Zucker Diabetic Fatty (ZDF/Crl-Lepr^fa) rats were obtained from Charles River Laboratories (Wilmington, Mass.). Rats were pair housed under a 12-h light/dark cycle with free access to water and Purina 5008 rat chow (Protein 26.8%, fat 16.7%, carbohydrates 56.5% kcal/vol; Purina Mills, Richmond, Ind.). Prior to the onset of diabetic hyperglycemia (fed blood glucose<200 mg/dl) rats were randomly allocated to groups based on HOMA values. The Homeostasis Model Assessment (HOMA) calculation estimates peripheral insulin resistance from corresponding insulin and glucose measurements. Rats were administered a once daily oral dose for 28 days with suspensions of vehicle alone (1.5% carboxymethyl-cellulose plus 0.2% Tween 20), vehicle plus test compound in the range 0.1-100 mg/kg. At the end of the study, an oral glucose tolerance test (OGTT, 2 g/kg dextrose) was conducted to measure glucose excursion. Tail venipuncture in conscious, 1 hr fasted animals at baseline and weekly thereafter, provided sample for blood glucose, serum insulin, triglycerides, cholesterol, and FFA measurements. Glucose levels were determined with a HemoCue Glucose Monitor (Ryan Diagnostics), insulin was determined by ELISA (Alpco), and lipids were determined by Cobas Mira Analyzer (Roche) and by enzymatic assays (Wako). Lipoprotein cholesterol was determined by FPLC following the method of Kieft et al. (Kieft K A, Bocan T M, Krause B R. Rapid on-line determination of cholesterol distribution among plasma lipoproteins after high-performance gel filtration chromatography. J Lipid Res 1991; 32(5): 859-66). Briefly, plasma was separated on a Superose 6HR 10/30 column (Pharmacia) and cholesterol was then measured in-line utilizing a post-column enzymatic cholesterol assay (Roche). Percent of total area for each lipoprotein fraction were calculated. These percent areas were then multiplied by the total plasma cholesterol concentration, yielding the cholesterol concentration in each fraction. Efficacy was determined by comparison to untreated vehicle controls and reference agents and active compounds selected for further evaluation.

| SMILES | pIC50 [1] | Emax [2] | pEC50 [2] | Duration of activity [3] | Maximal fall in Mean Blood Pressure after single dose of 10 mg/kg p.o. (mmHg) [3] | Blood Glucose (1 h Fast) after single daily dose of 10 mg/kg p.o. for 28 days (ZDF male rat) | Difference from Vehicle Control (ZDF male rat) |
| --- | --- | --- | --- | --- | --- | --- | --- |
| CCc1nc2c(C)cc(CCO)nc2n1[C@H]1CCc2cc(-c3ccccc3-c3nnn[nH]3)ccc21 [Example 13a, 2-(3-((1S)-5-(2-(1H-tetrazol-5-yl)phenyl)-2,3-dihydro-1H-inden-1-yl)-2-ethyl-7-methyl-3H-imidazo[4,5-b]pyridin-5-yl)ethanol] | 8.39 | 24% | 6.38 | >20 h | −28 mmHg | 112 mg/dL | -477 mg/dL |
| CCc1nc2c(C)cc(CC(C)(C)O)nc2n1[C@H]1CCc2cc(-c3ccccc3-c3nnn[nH]3)ccc21 [Example 16, 1-(3-((1S)-5-(2-(1H-tetrazol-5-yl)phenyl)-2,3-dihydro-1H-inden-1-yl)-2-ethyl-7-methyl-3H-imidazo[4,5-b]pyridin-5-yl)-2-methylpropan-2-ol] | 8.54 | 20% | 6.60 | >20 h | −37 mmHg | 114 mg/dL | -475 mg/dL |
| CCc1nc2c(C)cc(C3OC3(C)C)nc2n1[C@H]1CCc2cc(-c3ccccc3-c3nnn[nH]3)ccc21 (stereo partly drawn) [Example 22, 3-((1S)-5-(2-(1H-tetrazol-5-yl)phenyl)-2,3-dihydro-1H-inden-1-yl)-5-(3,3-dimethyloxiran-2-yl)-2-ethyl-7-methyl-3H-imidazo[4,5-b]pyridine] | 8.66 | 28% | 6.34 |  |  |  |  |
| CCc1nc2c(C)cc(Cn3cccn3)nc2n1[C@H]1CCc2cc(-c3ccccc3-c3nnn[nH]3)ccc21 [Example 6, 5-((1H-pyrazol-1-yl)methyl)-3-((1S)-5-(2-(1H-tetrazol-5-yl)phenyl)-2,3-dihydro-1H-inden-1-yl)-2-ethyl-7-methyl-3H-imidazo[4,5-b]pyridine] | 8.00 | 46% | 6.56 |  |  |  |  |
| CCc1nc2c(C)cc(Cn3nccn3)nc2n1[C@H]1CCc2cc(-c3ccccc3-c3nnn[nH]3)ccc21 [Example 66, 3-((1S)-5-(2-(1H-tetrazol-5-yl)phenyl)-2,3-dihydro-1H-inden-1-yl)-5-((2H-1,2,3-triazol-2-yl)methyl)-2-ethyl-7-methyl-3H-imidazo[4,5-b]pyridine] | 8.22 | 22% | 6.36 |  |  |  |  |
| CCc1nc2c(C)cc(C(=O)CC(C)C)nc2n1[C@H]1CCc2cc(-c3ccccc3-c3nnn[nH]3)ccc21 [Example 60, 1-(3-((1S)-5-(2-(1H-tetrazol-5-yl)phenyl)-2,3-dihydro-1H-inden-1-yl)-2-ethyl-7-methyl-3H-imidazo[4,5-b]pyridin-5-yl)-3-methylbutan-1-one] | 7.66 | 21% | 6.28 |  |  |  |  |
| CCc1nc2c(C)cc(CCC(O)c3cccnc3)nc2n1[C@H]1CCc2cc(-c3ccccc3-c3nnn[nH]3)ccc21 (stereo partly drawn) [Example 34, 3-(3-((1S)-5-(2-(1H-tetrazol-5-yl)phenyl)-2,3-dihydro-1H-inden-1-yl)-2-ethyl-7-methyl-3H-imidazo[4,5-b]pyridin-5-yl)-1-(pyridin-3-yl)propan-1-ol] | 8.68 | 12% | 6.23 |  |  |  |  |
| C=CCC(O)Cc1cc(C)c2nc(CC)n([C@H]3CCc4cc(-c5ccccc5-c5nnn[nH]5)ccc43)c2n1 (stereo partly drawn) [Example 20, 1-(3-((1S)-5-(2-(1H-tetrazol-5-yl)phenyl)-2,3-dihydro-1H-inden-1-yl)-2-ethyl-7-methyl-3H-imidazo[4,5-b]pyridin-5-yl)pent-4-en-2-ol] | 8.24 | 31% | 7.15 |  |  |  |  |

Molecules with a higher pIC50 [1], results first:

| pIC50 [1] | Emax [2] | pEC50 [2] | SMILES | Duration of activity [3] | Maximal fall in Mean Blood Pressure after single dose of 10 mg/kg p.o. (mmHg) [3] | Blood Glucose (1 h Fast) after single daily dose of 10 mg/kg p.o. for 28 days (ZDF male rat) | Difference from Vehicle Control (ZDF male rat) |
| --- | --- | --- | --- | --- | --- | --- | --- |
| 8.80 | 27% | 6.84 | CCc1nc2c(C)cc([C@@H](O)C(C)C)nc2n1[C@H]1CCc2cc(-c3ccccc3-c3nnn[nH]3)ccc21 [Example 10, (S)-1-(3-((1S)-5-(2-(1H-tetrazol-5-yl)phenyl)-2,3-dihydro-1H-inden-1-yl)-2-ethyl-7-methyl-3H-imidazo[4,5-b]pyridin-5-yl)-2-methylpropan-1-ol] | >20 h | −27 mmHg | 239 mg/dL | -133 mg/dL |
| 8.96 | 24% | 6.87 | CCc1nc2c(C)cc(CC[C@@H](C)OC)nc2n1[C@H]1CCc2cc(-c3ccccc3-c3nnn[nH]3)ccc21 [Example 39, 3-((1S)-5-(2-(1H-tetrazol-5-yl)phenyl)-2,3-dihydro-1H-inden-1-yl)-2-ethyl-5-((R)-3-methoxybutyl)-7-methyl-3H-imidazo[4,5-b]pyridine] |  |  |  |  |
| 8.70 | 21% | 6.67 | CCc1nc2c(C)cc(CC[C@H](C)OC)nc2n1[C@H]1CCc2cc(-c3ccccc3-c3nnn[nH]3)ccc21 [Example 38, 3-((1S)-5-(2-(1H-tetrazol-5-yl)phenyl)-2,3-dihydro-1H-inden-1-yl)-2-ethyl-5-((S)-3-methoxybutyl)-7-methyl-3H-imidazo[4,5-b]pyridine] |  |  |  |  |
| 8.92 | 30% | 6.67 | CCc1nc2c(C)cc(CC[C@H](C)O)nc2n1[C@H]1CCc2cc(-c3ccccc3-c3nnn[nH]3)ccc21 [Example 36, (S)-4-(3-((1S)-5-(2-(1H-tetrazol-5-yl)phenyl)-2,3-dihydro-1H-inden-1-yl)-2-ethyl-7-methyl-3H-imidazo[4,5-b]pyridin-5-yl)butan-2-ol] |  |  |  |  |
| 8.96 | 32% | 6.85 | CCc1nc2c(C)cc(CC[C@H](O)CC)nc2n1[C@H]1CCc2cc(-c3ccccc3-c3nnn[nH]3)ccc21 [Example 45, (R)-1-(3-((1S)-5-(2-(1H-tetrazol-5-yl)phenyl)-2,3-dihydro-1H-inden-1-yl)-2-ethyl-7-methyl-3H-imidazo[4,5-b]pyridin-5-yl)pentan-3-ol] |  |  |  |  |
